Data on 22 compounds can be found in patent US9365522B2, “Pyrazole amide derivative” (AMGEN INC., priority 2015, dated 2016).

This assay has as its target T1, ligand binding domain of human ROR gamma (Homo sapiens, UniProt P51449).
T1 construct: NM_001001523; expressed in transfected cells; host or cells: HEK293T
T1 sequence (P51449 247-497 isoform P51449-2): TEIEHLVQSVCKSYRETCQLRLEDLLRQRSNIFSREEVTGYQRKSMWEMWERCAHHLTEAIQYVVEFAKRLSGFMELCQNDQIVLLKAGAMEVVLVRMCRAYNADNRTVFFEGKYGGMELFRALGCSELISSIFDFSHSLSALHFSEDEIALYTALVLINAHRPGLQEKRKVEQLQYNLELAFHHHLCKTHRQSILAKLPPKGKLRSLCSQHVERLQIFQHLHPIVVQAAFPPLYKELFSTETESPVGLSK
In words: ROR gamma reporter gene assay (GAL4-RORγ LBD luciferase, Dual-Glo). It is filed as cell-based. The conditions noted are these: HEK293T cells transfected with pM-ROR gamma, 8 concentrations 3.5 nM to 10.5 μM, 24 h incubation; read-out: result (pIC50, inhibition of RORγ transcriptional activity) (converted). The method, boiled down: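 HEK293T cells were co-transfected with GAL4 DBD fused to human RORγ LBD (aa 247-497), a 5×UAS firefly luciferase reporter and CMV-driven renilla luciferase, in medium with 10% charcoal-stripped FBS.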
(In general: A reporter such as luciferase makes a cellular process visible.)

Each structure is given as a SMILES string. Where only a bound is given, the exact number is not on record here.

In the case of `O=C(CN(CC1CCC(F)(F)CC1)C(=O)c1cnn([C@H]2CC[C@H](C(=O)O)CC2)c1C(F)(F)F)c1c(Cl)cncc1Cl` [Example 101, trans-4-(4-((2-(3,5-dichloropyridin-4-yl)-2-oxoethyl)-((4,4-difluorocylohexyl)methyl)carbamoyl)-5-(trifluoromethyl)pyrazol-1-yl)cyclohexane-1-carboxylic acid], the IC50 is 87100 pM.

In the case of `CC1(CN(CC(=O)c2c(Cl)cncc2Cl)C(=O)c2cnn([C@H]3CC[C@H](C(=O)O)CC3)c2C(F)(F)F)CCCCC1` [Example 102, trans-4-(4-((2-(3,5-dichloropyridin-4-yl)-2-oxoethyl)-((1-methylcyclohexyl)methyl)carbamoyl)-5-(trifluoromethyl)pyrazol-1-yl)cyclohexane-1-carboxylic acid], the IC50 is 74100 pM.

Regarding `O=C(CN(Cc1ccccn1)C(=O)c1cnn([C@H]2CC[C@H](C(=O)O)CC2)c1C(F)(F)F)c1c(Cl)cncc1Cl` [Example 103, trans-4-(4-((2-(3,5-dichloropyridin-4-yl)-2-oxoethyl)-(pyridin-2-ylmethyl)carbamoyl)-5-(trifluorornethyl)pyrazol-1-yl)cyclohexane-1-carboxylic acid], the IC50 was 1.91e+06 pM.

For the compound `O=C(CN(Cc1cccnc1)C(=O)c1cnn([C@H]2CC[C@H](C(=O)O)CC2)c1C(F)(F)F)c1c(Cl)cncc1Cl` [Example 104, trans-4-(4-((2-(3,5-dichloropyridin-4-yl)-2-oxoethyl)-(pyridin-3-ylmethyl)carbamoyl)-5-(trifluorornethyl)pyrazol-1-yl)cyclohexane-1-carboxylic acid], the IC50 was 2.04e+06 pM.

With `O=C(CN(Cc1ccc(F)cc1)C(=O)c1cnn([C@H]2CC[C@](O)(C(=O)O)CC2)c1C(F)(F)F)c1c(Cl)cncc1Cl` [Example 105, cis-4-(4-((2-(3,5-dichloropyridin-4-yl)-2-oxoethyl)-((4-fluorophenyl)methyl)carbamoyl)-5-(trifluoromethyl)pyrazol-1-yl)-1-hydroxycyclohexane-1-carboxylic acid], the IC50 is 204000 pM.

On to `O=C(CN(Cc1ccc(F)cc1)C(=O)c1cnn([C@H]2CC[C@@](O)(C(=O)O)CC2)c1C(F)(F)F)c1c(Cl)cncc1Cl` [Example 106, trans-4-(4-((2-(3,5-dichloropyridin-4-yl)-2-oxoethyl)-((4-fluorophenyl)methyl)carbamoyl)-5-(trifluoromethyl)pyrazol-1-yl)-1-hydroxycyclohexane-1-carboxylic acid], for which the IC50 was 380000 pM.

In the case of `O=C(CN(Cc1cc(F)cc(F)c1)C(=O)c1cnn([C@H]2CC[C@H](C(=O)O)CC2)c1C(F)(F)F)c1cc(Cl)ccc1Cl` [Example 107, trans-4-(4-((2-(2,5-dichlorophenyl)-2-oxoethyl)-((3,5-difluorophenyl)methyl)carbamoyl)-5-(trifluoromethyl)pyrazol-1-yl)cyclohexane-1-carboxylic acid], the IC50 is 2.82e+06 pM.

As for `CC(CN(Cc1cc(F)cc(F)c1)C(=O)c1cnn([C@H]2CC[C@H](C(=O)O)CC2)c1C(F)(F)F)c1c(Cl)cccc1Cl` (stereo partly drawn) [Example 108, trans-4-(4-(2-(2,6-dichlorophenyl)propyl-((3,5-difluorophenyl)methyl)carbamoyl)-5-(trifluoromethyl)pyrazol-1-yl)cyclohexane-1-carboxylic acid], the IC50 was 324000 pM.

As for `COC(CN(Cc1cc(F)cc(F)c1)C(=O)c1cnn([C@H]2CC[C@H](C(=O)O)CC2)c1C(F)(F)F)c1c(Cl)cncc1Cl` (stereo partly drawn) [Example 109, trans-4-(4-((2-(3,5-dichloropyridin-4-yl)-2-methoxyethyl)-((3,5-difluorophenyl)methyl)carbamoyl)-5-(trifluoromethyl)pyrazol-1-yl)cyclohexane-1-carboxylic acid], the IC50 was 631000 pM.

For the compound `CC(C)(C)C#CCN(CC(=O)c1c(Cl)cncc1Cl)C(=O)c1cnn([C@H]2CC[C@H](C(=O)O)CC2)c1C(F)(F)F` [Example 110, trans-4-(4-((2-(3,5-dichloropyridin-4-yl)-2-oxoethyl)-(4,4-dimethylpent-2-ynyl)carbamoyl)-5-(trifluoromethyl)pyrazol-1-yl)cyclohexane-1-carboxylic acid], the IC50 was 162000 pM.

As for `COc1cccc(OC)c1C(=O)CN(Cc1cc(F)cc(F)c1)C(=O)c1cnn([C@H]2CC[C@H](C(=O)O)CC2)c1C(F)(F)F` [Example 111, trans-4-(4-((3,5-difluorophenyl)methyl-(2-(2,6-dimethoxyphenyl)-2-oxoethyl)carbamoyl)-5-(trifluoromethyl)pyrazol-1-yl)cyclohexane-1-carboxylic acid], the IC50 is 355000 pM.

For `COc1cc(Cl)cc(Cl)c1C(=O)CN(Cc1cc(F)cc(F)c1)C(=O)c1cnn([C@H]2CC[C@H](C(=O)O)CC2)c1C(F)(F)F` [Example 112, trans-4-(4-((2-(2,4-dichloro-6-methoxyphenyl)-2-oxoethyl)-((3,5-difluorophenyl)methyl)carbamoyl)-5-(trifluoromethyl)pyrazol-1-yl)cyclohexane-1-carboxylic acid], the IC50 was 61700 pM.

Take `O=C(CN(Cc1cc(F)cc(F)c1)C(=O)c1cnn([C@H]2CC[C@H](C(=O)O)CC2)c1C(F)(F)F)C1CCCC1` [Example 113, trans-4-(4-((2-cyclopentyl-2-oxoethyl)-((3,5-difluorophenyl)methyl)carbamoyl)-5-(trifluoromethyl)pyrazol-1-yl)cyclohexane-1-carboxylic acid]: the IC50 is 4.57e+06 pM.

In the case of `C[C@H](N(CC(=O)c1c(Cl)cncc1Cl)C(=O)c1cnn([C@H]2CC[C@H](C(=O)O)CC2)c1C(F)(F)F)C(C)(C)C` [Example 114, trans-4-(4-((2-(3,5-dichloropyridin-4-yl)-2-oxoethyl)-((2S)-3,3-dimethylbutan-2-yl)carbamoyl)-5-(trifluoromethyl)pyrazol-1-yl)cyclohexane-1-carboxylic acid], the IC50 is 2.29e+06 pM.

Take `C[C@@H](N(CC(=O)c1c(Cl)cncc1Cl)C(=O)c1cnn([C@H]2CC[C@H](C(=O)O)CC2)c1C(F)(F)F)C(C)(C)C` [Example 115, trans-4-(4-((2-(3,5-dichloropyridin-4-yl)-2-oxoethyl)-((2R)-3,3-dimethylbutan-2-yl)carbamoyl)-5-(trifluoromethyl)pyrazol-1-yl)cyclohexane-1-carboxylic acid]: the IC50 is 158000 pM.

As to `N[C@]1(C(=O)O)CC[C@@H](n2ncc(C(=O)N(CC(=O)c3c(Cl)cncc3Cl)Cc3ccc(F)cc3)c2C(F)(F)F)CC1` [Example 116, cis-4-(4-((2-(3,5-dichloropyridin-4-yl)-2-oxoethyl)-((4-fluorophenyl)methyl)carbamoyl)-5-(trifluoromethyl)pyrazol-1-yl)-1-aminocyclohexane-1-carboxylic acid], the IC50 is above 1e+07 pM.

Regarding `N[C@]1(C(=O)O)CC[C@H](n2ncc(C(=O)N(CC(=O)c3c(Cl)cncc3Cl)Cc3ccc(F)cc3)c2C(F)(F)F)CC1` [Example 117, cis-4-(4-((2-(3,5-dichloropyridin-4-yl)-2-oxoethyl)-((4-fluorophenyl)methyl)carbamoyl)-5-(trifluoromethyl)pyrazol-1-yl)-1-aminocyclohexane-1-carboxylic acid], the IC50 was 3.55e+06 pM.

For `CC(C)(CN(Cc1cc(F)cc(F)c1)C(=O)c1cnn([C@H]2CC[C@H](C(=O)O)CC2)c1C(F)(F)F)c1c(Cl)cccc1Cl` [Example 118, trans-4-(4-((2-(2,6-dichlorophenyl)-2-methylpropyl)-((3,5-difluorophenyl)methyl)carbamoyl)-5-(trifluoromethyl)pyrazol-1-yl)cyclohexane-1-carboxylic acid], the IC50 was 1.74e+06 pM.

As for `COc1cncc(OC)c1C(=O)CN(Cc1cc(F)cc(F)c1)C(=O)c1cnn([C@H]2CC[C@H](C(=O)O)CC2)c1C(F)(F)F` [Example 119, trans-4-(4-((3,5-difluorophenyl)methyl-(2-(3,5-dimethoxypyridin-4-yl)-2-oxoethyl)carbamoyl)-5-(trifluoromethyl)pyrazol-1-yl)cyclohexane-1-carboxylic acid], the IC50 is 1.51e+06 pM.

For `O=C(CN(CC1CCCCN1)C(=O)c1cnn([C@H]2CC[C@H](C(=O)O)CC2)c1C(F)(F)F)c1c(Cl)cncc1Cl` (stereo partly drawn) [Example 121, trans-4-(4-((2-(3,5-dichloropyridin-4-yl)-2-oxoethyl)-(piperidin-2-ylmethyl)carbamoyl)-5-(trifluoromethyl)pyrazol-1-yl)cyclohexane-1-carboxylic acid], the IC50 was above 1e+07 pM.

Turning to `Cc1cc(=O)[nH]c(C)c1C(=O)CN(Cc1cc(F)cc(F)c1)C(=O)c1cnn([C@H]2CC[C@H](C(=O)O)CC2)c1C(F)(F)F` [Example 122, trans-4-(4-((3,5-difluorophenyl)methyl-(2-(2,4-dimethyl-6-oxo-1H-pyridin-3-yl)-2-oxoethyl)carbamoyl)-5-(trifluoromethyl)pyrazol-1-yl)cyclohexane-1-carboxylic acid], the IC50 is above 1e+07 pM.

As to `O=C(CN(CC12CC3CC(CC(C3)C1)C2)C(=O)c1cnn([C@H]2CC[C@H](C(=O)O)CC2)c1C(F)(F)F)c1c(Cl)cncc1Cl` [Example 123, trans-4-(4-(1-adamantylmethyl-(2-(3,5-dichloropyridin-4-yl)-2-oxoethyl)carbamoyl)-5-(trifluoromethyl)pyrazol-1-yl)cyclohexane-1-carboxylic acid], the IC50 was 4900 pM.
